One assay addresses full length LAR (Homo sapiens, UniProt P10586). Nature of the assay: pull-down assays, wedge domain with full length LAR. The assay is classed as binding.
For a further assay, the target named is PTPσ (Homo sapiens, UniProt Q13332). The experiment in a line: pull-down assays, wedge domain with PTPσ. It counts as binding.
Assay [1] concerns adult dissociated dorsal root ganglia neurons on gradients of CSPG. Nature of the assay: spot assay: processes crossing CSPG (aggrecan) gradient. It counts as cell-based, rat. Conditions: for neurons extend processes that cross CSPG gradients: peptide added at time of plating. How it is done: Adult female rat sensory dorsal root ganglion (DRG) neurons were obtained and grown on gradients of the chondroitin sulfate proteoglycan aggrecan as previously described. Glass bottom delta-T time-lapse dishes were coated with Poly-L-Lysine (PLL) and incubated at room temperature overnight. Spots were created by dissolving 2 mg/ml aggrecan in calcium and magnesium free hanks balanced salt solution (HBSS). Eight 2 μl dots were placed into one half of each dish and given ample time to dry onto the glass. The dishes were finally coated in 10 μg/ml laminin for 3 hours at 37° C. Following incubation, six thousand adult dissociated DRG neurons were added to each dish in neural basal-A media supplemented with Glutamax, Penn/strep and B27. […] In this Example, the spot assay was conducted on glass coverslips with a few alterations from the technique used for time-lapse microscopy. Following PLL treatment, the coverslips were dried and coated with a small amount of nitrocellulose to increase adhesive interactions needed for spot formation. Following drying of nitrocellulose, 4 spots were dotted onto each coverslip (one in each quadrant) using 700 μg/ml aggrecan, 5 μg/ml laminin dissolved into HBSS. Following drying, the coverslips were coated in 5 μg/ml laminin at 37 degrees C. for 3 hours. 2,000 adult dissociated dorsal root ganglia neurons were added to each coverslip in neural basal-A media supplemented with Glutamax, Penn/strep and B27. In addition, peptides were added at the required concentration at the time of plating. Cells were allowed to grow for 5 days prior to fixation in 4% Paraformaldehyde. These peptides were ordered from Genscript and dissolved in water and stored long-term at −80° C. Peptides were added to media at time of neuronal plating. After 5 days in vitro, the cells were fixed and stained for mouse anti-B3Tubulin (green). The number of processes completely spanning the gradient were counted and normalized to the number of neuronal cell bodies on each individual spot.

For assay [2], the system named is contusive spinal cord injury in adult female Sprague-Dawley rats. The experiment in a line: Basso, Beattie and Bresnahan (BBB) scale for post-SCI locomotion. The assay is classed as in vivo, rat. Conditions: for BBB recovery over the course of the next 10 weeks: after 2 weeks post injury; for BBB recovery over the course of the next 10 weeks / average BBB score: 5 μM, 500 μl subcutaneously daily. How it is done: (§1) This Example describes methods of generating a moderate/severe contusive spinal cord injury with the Infinite Horizon device in adult female Sprague-Dawley rats for spinal cord injury (SCI) assays used in Examples 5-8. Briefly, rats were deeply anesthetized with a cocktail of ketamine/xylazine. Once under, the back was shaved and sterilized with Iodine and ethanol. Using a dorsal entry, the […] vertebrae 7-10 were exposed by a skin incision and at segments 8 and 9 a laminectomy was performed to expose the intact spinal cord. The spinal column and cord were stabilized in a stereotaxic frame prior to contusive impact. Finally, rats underwent a 250 kd Infinite Horizon contusion centered at the midline with no dwell time. Following muscle suturing and skin stapling, the animals were placed on a 37° C. hot pad and allowed ample access to food and water upon awakening from surgery. Pain was monitored, and animals in distress received a low dose of Marcaine at the injection site. Saline and Gentamycin (antibiotic) were given for 5 days post-surgery to prevent bladder infections. This experiment was performed start to finish 3 times. N−=15 ISP, N=11 vehicle and N=6 ILP.
(§2) Animals were randomly divided into three groups, vehicle control, ISP, or ILP. Lyophilized ISP or ILP peptide was first dissolved in sterile water at a concentration of 2.5 mM. To create individual treatments for each animal, the peptide was further diluted to a concentration of 5 μM in a vehicle solution of 5% DMSO in sterile saline. 25 ml of each treatment (ILP, ISP or vehicle) was alliquoted into 50 individual Eppendorf tubes, each containing 500 μl. The drugs were stored at −20 and thawed immediately prior to use. Each animal received 500 μl of either vehicle, 5 μM ISP or 5 μM ILP subcutaneously into the back above the lesion each day, starting 1 day after injury and lasting 7 weeks (49 treatments, 11 μg/rat/day).
Animals were allowed to freely roam on a table-top for three minutes while their hindlimb movements and locomotor patterns were being scored by a blinded observer according to the Basso, Beattie and Bresnahan scale for post-SCI locomotion (Basso et al, 1995). Behavior was performed at post injury days 1, 4, 7 and then weekly for 10 additional weeks. Statistical analysis was conducted by repeated measures 2 way Anova.

The test system is the same in assay [3]. The experiment in a line: grid-walk test after spinal cord injury. It counts as in vivo, rat. The settings on record: 12 weeks after spinal cord injury; for foot faults in the grid walk test versus vehicle: vehicle 6 foot-faults per meter. On the procedure: as §1
(§3) Animals were randomly divided into three groups, vehicle control, ISP, or ILP. Lyophilized ISP or ILP peptide was first dissolved in sterile water at a concentration of 2.5 mM. To create individual treatments for each animal, the peptide was further diluted to a concentration of 5 μM in a vehicle solution of 5% DMSO in sterile saline. 25 ml of each treatment (ILP, ISP or vehicle) was alliquoted into 50 individual Eppendorf tubes, each containing 500 μl. The drugs were stored at −20 and thawed immediately prior to use. […]
Animals were allowed to freely roam on a wire grid (100 cm×75 cm, with 1 cm^2 gaps in the wire) 12 weeks after spinal cord injury. While an overhead camera tracked and calculated the total distance traveled (Ethovision), the number of foot-faults was counted manually by a blinded observer. […]

Assay [4] shares this test system. The experiment in a line: urinary behavior in metabolic cages after spinal cord injury. The assay is classed as in vivo, rat. How it is done:
as §1, §2
Animals were placed in metabolic cages overnight for a dark cycle (16 hours). The urine was separated and collected into a syringe linked to a force transducer. The increase in force corresponding to each individual void was plotted in spike-2. The graphs were sampled into excel and manually confirmed to count the total number of voids and the average volume of each void.

The subject of assay [5] is growth cones of adult sensory DRG neurons on gradients of CSPG aggrecan. The experiment in a line: time-lapse microscopy of growth cone motility in CSPG spot assay. It counts as cell-based, rat. The settings on record: 4-6 days in vitro. On the procedure:
Adult female rat sensory dorsal root ganglion (DRG) neurons were obtained and grown on gradients of the chondroitin sulfate proteoglycan aggrecan as previously described. Glass bottom delta-T time-lapse dishes were coated with Poly-L-Lysine (PLL) and incubated at room temperature overnight. Spots were created by dissolving 2 mg/ml aggrecan in calcium and magnesium free hanks balanced salt solution (HBSS). Eight 2 μl dots were placed into one half of each dish and given ample time to dry onto the glass. The dishes were finally coated in 10 μg/ml laminin for 3 hours at 37° C. Following incubation, six thousand adult dissociated DRG neurons were added to each dish in neural basal-A media supplemented with Glutamax, Penn/strep and B27. The cells were allowed to grow for 4-6 days Immediately prior to the start of time lapse, the delta T dishes were sealed with a glass coverslip. 100× time-lapse microscopy was performed with a heated objective and heated stage to keep the cells at 37 degrees. Images were obtained every 30 seconds and stitched together to create a time lapse movie. Growth cone and filopodial dynamics were tracked and quantified manually with Metamorph.

The subject of assay [6] is contusive spinal cord injury in adult female Sprague-Dawley rats. Nature of the assay: terminal urodynamic analyses after spinal cord injury. It counts as in vivo, rat. Conditions: 14 weeks post injury. How it is done: as §1, with “ILP. […]” for “ILP.”
In a terminal experiment, animals were anesthetized with Urethane at 14 weeks post injury. […] Both muscle activity and pressure (measured through the catheter) were plotted in spike2.

The subject of assay [7] is 5HT expression in the lumbar spinal cord. Nature of the assay: 5HT expression (axonal density) in lumbar spinal cord after spinal cord injury. The assay is classed as in vivo, rat. On the procedure:
as §1, §3
For axonal density analysis, the gray matter was outlined and mean pixel intensity was calculated in ImageJ. […] One section selected randomly every 200 μm was analyzed over a total distance of 2 cm […]. […]

The test system of assay [8] is contusive spinal cord injury in adult female Sprague-Dawley rats. The experiment in a line: recovery beyond vehicle across behaviors after spinal cord injury. The assay is classed as in vivo, rat. On the procedure: as §1
Animals were randomly divided into three groups, vehicle control, ISP, or ILP. Lyophilized ISP or ILP peptide was first dissolved in sterile water at a concentration of 2.5 mM. […]

“And” between values parts separate entries of the source, which are not always exact repeats. Equal entries are not always repeated.

Sequence of PTPσ (Q13332 30-1948): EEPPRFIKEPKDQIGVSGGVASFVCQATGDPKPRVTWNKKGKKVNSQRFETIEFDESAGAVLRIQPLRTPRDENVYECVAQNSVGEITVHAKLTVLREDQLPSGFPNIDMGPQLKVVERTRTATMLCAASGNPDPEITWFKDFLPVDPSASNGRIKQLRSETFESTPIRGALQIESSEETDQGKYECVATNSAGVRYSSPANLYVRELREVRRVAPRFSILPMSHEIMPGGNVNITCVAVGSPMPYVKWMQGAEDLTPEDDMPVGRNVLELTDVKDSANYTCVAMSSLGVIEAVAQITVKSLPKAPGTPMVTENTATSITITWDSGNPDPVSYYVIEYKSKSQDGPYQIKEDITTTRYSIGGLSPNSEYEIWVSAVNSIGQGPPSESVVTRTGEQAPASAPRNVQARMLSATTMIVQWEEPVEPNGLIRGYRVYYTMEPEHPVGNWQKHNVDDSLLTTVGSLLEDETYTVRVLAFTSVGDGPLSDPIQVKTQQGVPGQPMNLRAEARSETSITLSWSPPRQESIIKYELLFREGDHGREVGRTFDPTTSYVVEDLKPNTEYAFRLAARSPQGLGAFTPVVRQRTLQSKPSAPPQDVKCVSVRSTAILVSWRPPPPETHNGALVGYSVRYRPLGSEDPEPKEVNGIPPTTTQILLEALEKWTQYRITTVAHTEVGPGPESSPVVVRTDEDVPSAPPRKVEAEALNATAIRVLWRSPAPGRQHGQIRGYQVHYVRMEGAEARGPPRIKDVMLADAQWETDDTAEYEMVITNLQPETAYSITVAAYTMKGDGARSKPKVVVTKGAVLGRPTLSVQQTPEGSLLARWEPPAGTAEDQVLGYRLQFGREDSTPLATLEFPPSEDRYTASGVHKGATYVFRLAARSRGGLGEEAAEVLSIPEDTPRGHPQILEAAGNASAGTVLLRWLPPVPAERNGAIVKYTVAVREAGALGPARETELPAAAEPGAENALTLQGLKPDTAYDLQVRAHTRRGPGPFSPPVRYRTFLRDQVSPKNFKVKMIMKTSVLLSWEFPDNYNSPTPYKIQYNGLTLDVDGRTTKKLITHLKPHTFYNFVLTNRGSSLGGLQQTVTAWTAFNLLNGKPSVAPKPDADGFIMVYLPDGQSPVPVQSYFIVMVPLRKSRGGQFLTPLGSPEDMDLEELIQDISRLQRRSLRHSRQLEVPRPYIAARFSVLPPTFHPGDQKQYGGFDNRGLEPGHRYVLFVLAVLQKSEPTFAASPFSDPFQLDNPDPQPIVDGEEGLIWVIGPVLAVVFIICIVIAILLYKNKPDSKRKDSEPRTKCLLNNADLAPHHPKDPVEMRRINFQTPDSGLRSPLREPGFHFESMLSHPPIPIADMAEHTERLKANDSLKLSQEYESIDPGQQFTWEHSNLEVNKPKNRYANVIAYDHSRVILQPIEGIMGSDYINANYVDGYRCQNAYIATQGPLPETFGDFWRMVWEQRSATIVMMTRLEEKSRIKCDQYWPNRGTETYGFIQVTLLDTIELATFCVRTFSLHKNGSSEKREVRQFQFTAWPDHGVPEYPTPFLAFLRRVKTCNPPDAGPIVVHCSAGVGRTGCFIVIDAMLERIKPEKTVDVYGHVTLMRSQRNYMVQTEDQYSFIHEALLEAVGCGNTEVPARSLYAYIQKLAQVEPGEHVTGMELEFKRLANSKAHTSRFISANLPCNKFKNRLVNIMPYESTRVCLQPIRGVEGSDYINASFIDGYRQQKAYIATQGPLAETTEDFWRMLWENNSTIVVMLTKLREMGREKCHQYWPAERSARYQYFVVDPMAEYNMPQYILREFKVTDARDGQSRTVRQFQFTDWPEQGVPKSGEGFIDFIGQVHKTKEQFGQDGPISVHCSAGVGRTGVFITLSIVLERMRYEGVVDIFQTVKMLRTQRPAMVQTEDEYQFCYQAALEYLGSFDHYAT
Sequence of full length LAR (P10586 30-1907, species assumed): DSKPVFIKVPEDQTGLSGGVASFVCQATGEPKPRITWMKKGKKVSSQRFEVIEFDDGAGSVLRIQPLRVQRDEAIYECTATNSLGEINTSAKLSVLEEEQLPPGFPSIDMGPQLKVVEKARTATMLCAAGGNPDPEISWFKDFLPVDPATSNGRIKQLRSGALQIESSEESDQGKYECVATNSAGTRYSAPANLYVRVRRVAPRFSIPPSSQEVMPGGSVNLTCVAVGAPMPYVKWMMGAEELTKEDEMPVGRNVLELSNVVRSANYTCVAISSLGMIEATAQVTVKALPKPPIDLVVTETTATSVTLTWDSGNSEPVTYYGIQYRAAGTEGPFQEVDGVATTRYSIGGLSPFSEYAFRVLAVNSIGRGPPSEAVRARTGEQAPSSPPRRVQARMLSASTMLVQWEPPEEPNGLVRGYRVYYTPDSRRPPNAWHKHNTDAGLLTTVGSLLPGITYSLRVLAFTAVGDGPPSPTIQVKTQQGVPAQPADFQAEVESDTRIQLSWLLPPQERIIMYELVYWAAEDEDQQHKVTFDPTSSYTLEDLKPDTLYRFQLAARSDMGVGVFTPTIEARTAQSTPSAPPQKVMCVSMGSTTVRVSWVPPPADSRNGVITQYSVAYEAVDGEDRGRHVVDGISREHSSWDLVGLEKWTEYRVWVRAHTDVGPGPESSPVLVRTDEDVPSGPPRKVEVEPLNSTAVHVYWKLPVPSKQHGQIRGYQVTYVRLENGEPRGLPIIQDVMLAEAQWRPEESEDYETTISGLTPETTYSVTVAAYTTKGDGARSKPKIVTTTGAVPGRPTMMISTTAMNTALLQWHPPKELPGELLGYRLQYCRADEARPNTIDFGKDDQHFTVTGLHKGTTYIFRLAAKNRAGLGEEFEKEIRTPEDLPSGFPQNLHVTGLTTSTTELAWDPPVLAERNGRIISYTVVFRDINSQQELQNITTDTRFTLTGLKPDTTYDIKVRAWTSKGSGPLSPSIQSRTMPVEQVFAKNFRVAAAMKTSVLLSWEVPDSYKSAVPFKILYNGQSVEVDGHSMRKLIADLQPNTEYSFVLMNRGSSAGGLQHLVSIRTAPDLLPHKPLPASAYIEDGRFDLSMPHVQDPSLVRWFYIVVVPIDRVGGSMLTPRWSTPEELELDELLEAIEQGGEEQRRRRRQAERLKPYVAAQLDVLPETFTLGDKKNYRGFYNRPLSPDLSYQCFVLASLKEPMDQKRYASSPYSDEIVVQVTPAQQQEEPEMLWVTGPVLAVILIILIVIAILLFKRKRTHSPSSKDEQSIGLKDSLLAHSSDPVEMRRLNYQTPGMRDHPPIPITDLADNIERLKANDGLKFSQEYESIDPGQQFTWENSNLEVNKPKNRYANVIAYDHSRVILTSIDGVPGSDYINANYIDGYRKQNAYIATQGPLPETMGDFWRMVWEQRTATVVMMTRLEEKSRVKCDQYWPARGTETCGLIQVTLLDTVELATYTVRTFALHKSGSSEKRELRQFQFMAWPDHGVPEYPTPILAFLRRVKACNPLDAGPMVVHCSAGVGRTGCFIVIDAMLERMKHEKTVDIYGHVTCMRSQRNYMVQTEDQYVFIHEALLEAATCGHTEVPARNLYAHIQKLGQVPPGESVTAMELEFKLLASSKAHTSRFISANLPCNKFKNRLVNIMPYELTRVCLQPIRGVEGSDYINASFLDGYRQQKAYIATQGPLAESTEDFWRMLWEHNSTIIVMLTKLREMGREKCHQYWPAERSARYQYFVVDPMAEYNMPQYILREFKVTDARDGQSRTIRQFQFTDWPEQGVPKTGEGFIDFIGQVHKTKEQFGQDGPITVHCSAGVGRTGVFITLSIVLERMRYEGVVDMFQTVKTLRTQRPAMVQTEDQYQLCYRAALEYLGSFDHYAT

Take “DLADNIERLKANDGLKFSQEYESI (listed as Rattus rattus) [wedge domain of LAR, 24 amino acid wedge-shaped helix-loop-helix motif of LAR used in pull-down assays]”: in the assay with full length LAR, the “interaction with full length LAR” value is recorded as “able to specifically interact with full length LAR”. Moreover, the binding to sigma result in the assay with PTPσ is listed as “unable to bind to sigma”.
Turning to “NH2GRKKRRQRRRCDLADNIERLKANDGLKFSQEYESI-NH2 (H-GRKKRRQRRRCDLADNIERLKANDGLKFSQEYESI-NH2; listed as Homo sapiens) [ILP, LAR wedge domain peptide conjugated to HIV-TAT]”, in assay [1] (5 days in vitro), the “neurons extend processes that cross CSPG gradients” value is on record as “also allows neurons to traverse gradients of CSPG”. Besides, the “BBB recovery over the course of the next 10 weeks” value in assay [2] is given as “recovered only slightly beyond this point”. Further, in assay [3], the “foot faults in the grid walk test versus vehicle” value is given as “very slight insignificant improvement”. Also, the “void frequency (absolute)” value in assay [4] (naïve animals urinate twice per hour) is “once every two hours”. Besides, the volume/void entry in assay [4] (versus naïve animals) is “significantly increased”.
With “NH2GRKKRRQRRRCDMAEHMERLKANDSLKLSQEYESI-NH2 [ISP]”, the “dose dependence of gradient crossing” value in [1] is “dose dependent”. Moreover, in assay [1] (5 days in vitro), the “concentration giving optimal crossing of CSPG gradient” value worked out at 2.5 μm and the “neurons extend processes that cross CSPG gradients” value is recorded as “allows neurons to extend processes that cross CSPG gradients”. Also, the “axonal stabilization and over adhesion in time-lapse” value in [5] was “prevented axonal stabilization and over adhesion”. Moreover, the “growth cones still motile” value in assay [5] (8% in the control condition) turned out to be 65%. Also, the “average BBB score” value in [2] (6 weeks) is reported as 12. The “average BBB score” value in [2] (7 weeks) is listed as “greater than 13”. In assay [2], the “BBB recovery over the course of the next 10 weeks” value was “continued to recover”. Moreover, in assay [2] (individual animals), the “BBB score reached by individual animals” value was 19 and 18.5. In [2] (rat, in vivo), the “animals that regained at least frequent coordinated stepping” value was 7 of 15. In addition, in [3] (several animals), the “foot faults made by several individual animals” value is listed as “less than 3 foot faults”. In addition, the “foot faults in the grid walk test versus vehicle” value in [3] was “significantly fewer foot faults”. Besides, the “recovery of void frequency” value in assay [4] (4 or 8 weeks post injury) is “no significant recovery”. The void frequency result in assay [4] (12 weeks post injury) is recorded as “significant increase in void frequency”. In [4] (rat, in vivo), the “animals reaching naïve micturition frequency” value is “multiple animals reaching normal (naïve) micturition frequency levels”. In addition, the “increase of post-injury void frequency on average” value in assay [4] (versus vehicle) is given as “two fold”. Further, the “coordinated bladder contractions with external urethral sphincter bursting” value in assay [6] is “many animals recovered coordinated bladder contractions with patterned external urethral sphincter bursting”. The “5HT staining throughout the gray matter” value in assay [7] (14 weeks following spinal cord injury, lumbar spinal cord) is listed as “dramatic increase”. The “quantified 5HT expression throughout the gray matter” value in assay [7] (FIG. 15) was “significantly increased”. For the same substance, the “5HT expression in non-responders” value in assay [7] (the two ISP non-responders) was “did not show a dramatic rise”. Moreover, the “animals with significant behavioral improvements” value in assay [8] (greater than two standard deviations better than vehicle mean) is reported as 13 of 15. Besides, in assay [8] (rat, in vivo), the “animals regaining significant function in all three behaviors” value worked out at 4 animals.
For “NH2GRKKRRQRRRCIREDDSLMLYALAQEKKESNMHES-NH2 (H-GRKKRRQRRRCIREDDSLMLYALAQEKKESNMHES-NH2; listed as Homo sapiens) [scrambled ISP-TAT peptide, reference compound]”, the “neurons extend processes that cross CSPG gradients” value in assay [1] (5 days in vitro) is “Neither vehicle control nor the scrambled ISP-TAT peptide allowed neuronal extensions across the gradient”.

(Values after patent US12171834B2, “Compositions and methods for inhibiting the activity of LAR family phosphatases” (CASE WESTERN RESERVE UNIVERSITY, priority 2012, dated 2024).)
